Assay results: patent US9440913B2, “Dihydroxybenzene derivatives and antiprotozoal agent comprising same as active ingredient” (NAI INC., priority 2010, dated 2016)

Key:
[1] = biological target: T1, recombinant Trypanosome AOX (TAO) enzyme (Trypanosoma brucei brucei, UniProt Q26710); assay: TAO enzyme inhibition (quinol oxidase activity, ubiquinol-1 substrate); format: biochemical, T. brucei brucei; details: TAO-expressing E. coli membrane fraction, 25° C., ubiquinol-1, absorbance at 278 nm
T1 construct: made in house; host or cells: Escherichia coli (membrane fraction)
Procedure: Escherichia coli membrane fractions that express TAO by a plasmid harboring TAO cDNA cloned from T. brucei brucei (Fukai, Comparative Biochemistry & Physiology, 124, 141-148, 1999) were used as a recombinant Trypanosome AOX (TAO) enzyme. 50 mM Tris-HCl (pH 7.5), TAO-expressing membrane fraction (0.35 ng), and […] of an inhibitor were mixed in a 1 mL cuvette, and the mixture was incubated at 25° C. for 4 minutes. Ubiquinol-1 as a substrate was then added to the mixture to initiated the reaction, and change in absorbance at 278 nm was monitored (Shimadzu UV-3000, molar absorption coefficient ε=15 cm^−1 mM^−1).

[2] = system: T. b. rhodesiense IL1501; assay: Antiprotozoal effect, MIC measurement in HMI-9 culture; format: cell-based; details: bloodstream forms, 18 + 6 hours culture
Procedure: T. b. rhodesiense IL1501, the human infectious protozoan that causes acute symptoms, was used as a Trypanosomatid protozoan. The bloodstream forms of protozoan can be cultured in a HMI-9 culture medium (Hirumi, 1989). The protozoan was always cultured at a temperature of 37° C. in the presence of 5% CO2.
In a microtiter plate (96-well, FALCON 3072), HMI-9 culture medium and HMI-9 culture medium plus glycerol added to make a final concentration of 8.33 mM are separately prepared. 89 μL of the preparation are put into only the first well, and a 60 μL aliquot of each the other wells. 1 μL of a solution of AF or a AF derivative dissolved in DMSO was added to the first well, and was then suspended. A 30 μL aliquot of the suspension was then collected, was transferred to the second well, and was suspended. These operations were repeated in this order to prepare a three-fold dilution series of drug. A 40 μL aliquot of a protozoan culture was added to each well to make a final concentration of 5×10^4 cells/well (a final concentration of glycerol of 5 mM) followed by 18-hours culturing under conditions of 37° C. and 5% CO2. (For EC50 measurement, a 10 μL aliquot of Alamar Blue was added to each well), culturing was carried out under the same conditions for 6 more hours, surviving protozoans were visually observed with a microscope. The concentration at which no motile surviving protozoan was observed was defined as MIC.

[3] = Trypanosoma brucei, RHODESIENSE, 24 h, Glycerol (+), final concentration of glycerol of 5 mM
[4] = Trypanosoma brucei, RHODESIENSE, 24 h, Glycerol (−)

T1 sequence (Q26710 whole entry): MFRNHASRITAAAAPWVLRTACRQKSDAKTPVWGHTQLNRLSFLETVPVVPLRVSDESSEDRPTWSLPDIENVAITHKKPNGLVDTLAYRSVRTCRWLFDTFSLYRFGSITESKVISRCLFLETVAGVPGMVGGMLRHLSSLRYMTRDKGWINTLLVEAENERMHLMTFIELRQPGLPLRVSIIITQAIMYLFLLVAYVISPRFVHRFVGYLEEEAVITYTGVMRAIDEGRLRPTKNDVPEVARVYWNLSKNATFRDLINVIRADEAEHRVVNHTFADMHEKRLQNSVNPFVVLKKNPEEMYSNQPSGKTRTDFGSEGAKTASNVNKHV

| Compound | IC50 [1] | further results |
| --- | --- | --- |
| COC(=O)c1ccc(O)c(C/C=C(\C)CCC=C(C)C)c1O [Compound 161, Methyl (E)-3-(3,7-Dimethyl-2,6-octadienyl)-2,4-dihydroxybenzoate] |  | melting point: 62 °C |
| C/C(=C\Cc1c(O)c(Cl)c(C)c(C=O)c1O)CC/C=C(\C)COC1CCCCO1 (stereo not drawn) [Compound 236-13-OTHP, 3-Chloro-5-[(2E,6E)-3,7-dimethyl-8-(tetrahydropyran-2-yloxy)-2,6-octadienyl]-4,6-dihydroxy-2-methylbenzaldehyde] | 0.2 nM |  |
| CCCCC/C(C)=C/COc1cc(O)c(C(C)=O)c(C)c1Cl [Compound 270-8, (E)-3-Chloro-6-hydroxy-2-methyl-(3-methyl-2-octenoxy)acetophenone] | 300 nM | MIC [2, 3]: 3700 nM; MIC [2, 4]: 9200 nM |
| Cc1c(Cl)c(O)c(CCCCCCCC(=O)O)c(O)c1C=O [Compound 215-9-COOH, 8-(3-Chloro-5-formyl-2,6-dihydroxy-4-methylphenyl)octanoic acid] |  | melting point: 149 to 150 °C |
| CCOC(=O)CCCCCCCCCc1c(O)c(Cl)c(C)c(C=O)c1O [Compound 215-13-COOEt, Ethyl 10-(3-chloro-5-formyl-2,6-dihydroxy-4-methylphenyl)decanoate] | 0.2 nM | MIC [2, 3]: 2 nM; MIC [2, 4]: 24 nM |
| COC(=O)c1c(C)cc(O)c(C/C=C(\C)CCC=C(C)C)c1O [Compound 146, Methyl (E)-3-(3,7-Dimethyl-2,6-octadienyl)-2,4-dihydroxy-6-methylbenzoate] |  | melting point: 46 to 47 °C |
| Cc1c(Cl)c(O)c(/C=C/CCCCCOC(=O)C(C)(C)C)c(O)c1C=O [Compound 200-11-OPiv, (E)-7-(3-Chloro-5-formyl-2,6-dihydroxy-4-methylphenyl)-6-heptenyl pivalate] | 0.53 nM | MIC [2, 3]: 0.8 nM; MIC [2, 4]: 22 nM |
| Cc1c(Cl)c(O)c(/C=C/CCCCCC2CC(=O)C(C)(C)O2)c(O)c1C=O (stereo not drawn) [Compound 249, 3-Chloro-4,6-dihydroxy-2-methyl-5-[(E)-7-(5,5-dimethyl-4-oxo-tetrahydrofuran-2-yl)-1-heptenyl]benzaldehyde] | 1 nM | MIC [2, 3]: 18 nM; MIC [2, 4]: 74 nM |
| C/C(=C\Cc1c(O)c(Cl)c(C)c(CO)c1O)CC/C=C(\C)COC(=O)C(C)(C)C [Compound 503-OPiv, (2E,6E)-8-(3-Chloro-2,6-dihydroxy-5-hydroxymethyl-4-methylphenyl)-2,6-dimethyl-2,6-octadienyl pivalate] | 0.3 nM |  |
| CC(=O)c1c(C)c(Cl)c(O)c(C/C=C(\C)CC/C=C(\C)C(C)O)c1O (stereo not drawn) [Compound 286-9-OH, (2E,6E)-3-Chloro-4,6-dihydroxy-2-methyl-5-(8-hydroxy-3′,7′-dimethyl-2′,6′-nonadienyl)acetophenone] | 7.1 nM |  |
| Cc1c(Cl)c(O)c(CCCCCCCCCOC(=O)C(C)C)c(O)c1C=O [Compound 215-13-OCOiPr, 9-(3-Chloro-5-formyl-2,6-dihydroxy-4-methylphenyl)nonyl isobutylate] | 0.3 nM |  |
| Cc1c(Cl)c(O)c(/C=C/CCCCCCOC(=O)C(C)C)c(O)c1C=O [Compound 200-12-OCOiPr, (E)-8-(3-Chloro-5-formyl-2,6-dihydroxy-4-methylphenyl)-7-octenyl isobutylate] | 0.75 nM |  |
| Cc1c(Cl)c(O)c(CCCCCCCCCC(=O)C(C)(C)C)c(O)c1C=O [Compound 215-12-Piv, 3-Chloro-4,6-dihydroxy-5-(11,11-dimethyl-10-oxo-dodecyl)-2-methylbenzaldehyde] | 0.4 nM |  |
| CC(=O)c1c(C)c(Cl)c(O)c(C/C=C(\C)CC/C=C(\C)C2CC(=O)C(C)(C)O2)c1O (stereo not drawn) [Compound 214, 5-Chloro-2,4-dihydroxy-6-methyl-3-[(2E,6E)-7-(5,5-dimethyl-4-oxotetrahydrohuran-2-yl)-3,7-dimethyl-2,6-heptadienyl]acetophenone] | 0.3 nM |  |
| C/C(=C\Cc1c(O)c(Cl)c(C)c(C=O)c1O)CC/C=C/COC(=O)C(C)(C)C [Compound 289-12-OPiv, (2E,6E)-8-(3-Chloro-5-formyl-2,6-dihydroxy-4-methylphenyl)-6-methyl-2,6-octadienyl pivalate] | 0.2 nM |  |
| CC(=O)c1c(C)c(Cl)c(O)c(C/C=C(\C)CC/C=C(\C)COC(=O)C(C)(C)C)c1O [Compound 175-12-OPiv, (2E,6E)-8-(5-Acetyl-3-chloro-2,6-dihydroxy-4-methylphenyl)-2,6-dimethyl-2,6-octadienyl pivalate] | 0.7 nM | MIC [2, 3]: 1.4 nM; MIC [2, 4]: 10 nM |

| Compound | IC50 [1] | further results |
| --- | --- | --- |
| Cc1c(Cl)c(O)c(CCC(C)CCCCCOC(=O)C(C)(C)C)c(O)c1C=O (stereo not drawn) [Compound 290-12-OPiv, 8-(3-Chloro-5-formyl-2,6-dihydroxy-4-methylphenyl)-6-methyloctyl pivalate] | 0.3 nM |  |
| COC(C)(C)CCC/C(C)=C/Cc1c(O)c(Cl)c(C)c(C=O)c1O [Compound 231-9-OMe, 3-Chloro-4,6-dihydroxy-5-[(E)-7-methoxy-3,7-dimethyl-2-octeny]-2-methylbenzaldehyde] | 0.29 nM |  |
| CCCCCC(C)CCc1c(O)c(Cl)c(C)c(C(C)=O)c1O (stereo not drawn) [Compound 269-8, 3-Chloro-4,6-dihydroxy-2-methyl-5-(3-methyloctyl)acetophenone] | 2.5 nM | MIC ([2]; Glycerol (+), final concentration of glycerol of 5 mM): 70 nM; MIC ([2]; Glycerol (−)): 500 nM |
| Cc1c(Cl)c(O)c(C/C=C/CCCC/C=C/C(=O)C(C)(C)C)c(O)c1C=O [Compound 288-12-Piv, 3-Chloro-4,6-dihydroxy-5-((E,E)-11,11-dimethyl-10-oxo-2,8-dodecadienyl)-2-methylbenzaldehyde] | 0.74 nM |  |
| CC(C)=CCC/C(C)=C/Cc1c(O)cc(C)c(C=O)c1O [Compound 216, (E)-2,4-Dihydroxy-3-(3,7-dimethyl-2,6-octadienyl)-6-methylbenzaldehyde] |  | melting point: 120 to 121 °C |
| CC(=O)c1cc(Cl)c(O)c(CCCCCCCOC(=O)C(C)(C)C)c1O [Compound 178-11-OPiv, 7-(3-Acetyl-5-chloro-2,6-dihydroxyphenyl)heptyl pivalate] |  | melting point: 48 °C |
| CCCCC/C(C)=C/Cc1c(O)c(Cl)c(C)c(C=O)c1O [Compound 264-8, (E)-3-Chloro-4,6-dihydroxy-2-methyl-5-(3-methyl-2-octenyl)benzaldehyde] | 0.06 nM | MIC [2, 3]: 0.002 nM; MIC [2, 4]: 0.18 nM |
| CCOC(=O)CCCCCCCc1c(O)c(Cl)c(C)c(C=O)c1O [Compound 215-11-COOEt, Ethyl 8-(3-chloro-5-formyl-2,6-dihydroxy-4-methylphenyl)octanoate] | 0.5 nM | MIC [2, 3]: 8.5 nM; MIC [2, 4]: 48 nM |
| C/C(=C\COC(=O)C(C)C)CC/C(C)=C/Cc1c(O)c(Cl)c(C)c(C=O)c1O [Compound 287-12-OCOiPr, (2E,6E)-8-(3-Chloro-5-formyl-2,6-dihydroxy-4-methylphenyl)-3,6-dimethyl-2,6-octadienyl isobutylate] | 0.26 nM |  |
| Cc1c(Cl)c(O)c(CCCCCCC(C)COC(=O)C(C)(C)C)c(O)c1C=O (stereo not drawn) [Compound 279-12-OPiv, 8-(3-Chloro-5-formyl-2,6-dihydroxy-4-methylphenyl)-2-methyloctyl pivalate] | 0.41 nM |  |
| COC(=O)CCCCCCC/C=C/c1c(O)c(Cl)c(C)c(C=O)c1O [Compound 200-12-COOMe, (E)-Methyl 10-(3-chloro-5-formyl-2,6-dihydroxy-4-methylphenyl)-10-decenoate] | 0.5 nM | MIC [2, 3]: 33 nM; MIC [2, 4]: 120 nM |
| C/C(=C\CC/C=C/Cc1c(O)c(Cl)c(C)c(C=O)c1O)COC(=O)C(C)(C)C [Compound 278-12-OPiv, (2E,6E)-8-(3-Chloro-5-formyl-2,6-dihydroxy-4-methylphenyl)-2-methyl-2,6-octadienyl pivalate] | 0.26 nM |  |
| C/C(=C\COC(=O)C(C)(C)C)CC/C(C)=C/Cc1c(O)c(Cl)c(C)c(C=O)c1O [Compound 287-12-OPiv, (2E,6E)-8-(3-Chloro-5-formyl-2,6-dihydroxy-4-methylphenyl)-3,6-dimethyl-2,6-octadienyl pivalate] | 0.36 nM |  |
| CC(=O)c1c(C)c(Cl)c(O)c(CCCCCCCOC(=O)C(C)(C)C)c1O [Compound 172-11-OPiv, 7-(3-Acetyl-5-chloro-2,6-dihydroxy-4-methylphenyl)heptyl pivalate] | 8 nM | MIC [2, 3]: 19 nM; MIC [2, 4]: 540 nM |
| C/C(=C\Cc1c(O)c(Cl)c(C)c(C=O)c1O)CCCCOC(=O)C(C)(C)C [Compound 264-11-OPiv, (5E)-7-(3-Chloro-5-formyl-2,6-dihydroxy-4-methylphenyl)-5-methyl-5-heptenyl pivalate] | 0.22 nM |  |
